From ChEMBL document CHEMBL1148791, “High-throughput screening of drug-brain tissue binding and in silico prediction for assessment of central nervous system drug delivery” (J Med Chem, 2007)

Experiments:
physchem [1] = experiment: physchem
Description: Acid dissociation constant, pKa of the compound

physchem [2] = conditions: buffer, pH 7.4
[3] = buffer, pH 7.4
[4] = Fraction unbound ligand in rat brain after 20 hrs; type: ADME, tissue-based; conditions: brain tissue
[5] = Fraction unbound ligand in rat adrenal gland after 20 hrs; type: ADME, tissue-based; conditions: adrenal gland tissue
[6] = Fraction unbound ligand in rat brown fat tissue after 20 hrs; type: ADME, tissue-based, Adipose tissue
[7] = Fraction unbound ligand in rat lung after 20 hrs; type: ADME, tissue-based; conditions: lung tissue

Structure (SMILES) | pKa (physchem [1]) | logD (physchem [2]) | also measured
O=C1CC2(CCCC2)CC(=O)N1CCCCN1CCN(c2ncccn2)CC1 [BUSPIRONE] | 7.8 | – | –
NC(=O)N1c2ccccc2C=Cc2ccccc21 [CARBAMAZEPINE] | – | 1.77 | –
CCCC(C)(COC(N)=O)COC(=O)NC(C)C (stereo unspecified) [CARISOPRODOL] | – | 2.4 | –
CN(C)CCCN1c2ccccc2Sc2ccc(Cl)cc21 [CHLORPROMAZINE] | – | 3.7 | –
CN1CCN(C2=Nc3cc(Cl)ccc3Nc3ccccc32)CC1 [CLOZAPINE] | – | 3.46 | –
CN(C)CCC=C1c2ccccc2C=Cc2ccccc21 [CYCLOBENZAPRINE] | 9.69 | 2.92 | –
COCCCC/C(=N\OCCN)c1ccc(C(F)(F)F)cc1 [FLUVOXAMINE] | 9.4 | – | –
O=C(CCCN1CCC(O)(c2ccc(Cl)cc2)CC1)c1ccc(F)cc1 [HALOPERIDOL] | – | 0.18 | –
COc1ccc2c3c1O[C@H]1C(=O)CC[C@H]4[C@@H](C2)N(C)CC[C@]314 [HYDROCODONE] | 8.43 | 3.38 | –
OCCOCCN1CCN(C(c2ccccc2)c2ccc(Cl)cc2)CC1 (stereo unspecified) [HYDROXYZINE] | 7.75 | – | Log D [3]: 0.18
COC(=O)[C@H](c1ccccc1)C1CCCCN1 (stereo partly specified) [METHYLPHENIDATE] | 9.24 | -0.15 | –
Cc1ncc2n1-c1ccc(Cl)cc1C(c1ccccc1F)=NC2 [MIDAZOLAM] | 5.44 | 2.5 | –
CNCCC=C1c2ccccc2CCc2ccccc21 [NORTRIPTYLINE] | 10.4 | 2.23 | –
Fc1ccc([C@@H]2CCNC[C@H]2COc2ccc3c(c2)OCO3)cc1 [PAROXETINE] | 10.1 | 2.27 | –
CC(C)NCC(O)COc1cccc2ccccc12 (stereo unspecified) [PROPRANOLOL] | – | – | fraction unbound at 20 h [4]: 0.021; fraction unbound at 20 h [5]: 0.01; fraction unbound at 20 h [6]: 0.097; fraction unbound at 20 h [7]: 0.053
Cc1nc2n(c(=O)c1CCN1CCC(c3noc4cc(F)ccc34)CC1)CCCC2 [RISPERIDONE] | – | 1.66 | –
O=c1n(CCCN2CCN(c3cccc(Cl)c3)CC2)nc2ccccn12 [TRAZODONE] | 6.73 | 2.97 | –
COc1ccc(C(CN(C)C)C2(O)CCCCC2)cc1 (stereo unspecified) [VENLAFAXINE] | – | 0.88 | –
Cc1ccc(-c2nc3ccc(C)cn3c2CC(=O)N(C)C)cc1 [ZOLPIDEM] | 6.02 | 2.35 | –
